Where two headings read alike, the source gives them in different places.
Columns and labels:
KO-52 cells = assay: Proliferation assay, spheroid-like growth, KO-52 (MLL wildtype control cell line); assay type: cell-based, human; conditions: KO-52 control cells, 8 days, confluence as measure of spheroid size, read-out: spheroid assay_OneTime KO-52 IC50
Method in brief: (§1)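 Cells seeded in ultra-low attachment round-bottom wells (200 MOLM14 or 300 KO-52 per well) with compound at several concentrations, DMSO 0.3%, grown 8 days at 37° C, 5% CO2. Spheroid size taken as confluence from day-8 live-cell images; IC50 from variable-slope fit, DMSO as 0% and high-dose reference compound as 100% effect.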

[1] = target: T1, menin/MLL (terbium chelate-labeled menin, FITC-MBM1 peptide) (Homo sapiens, UniProt O00255, T541A); assay: Menin/MLL homogenous time-resolved fluorescence (HTRF) assay; assay type: binding; conditions: 30 min incubation
T1 construct: Menin (a.a 1-610-6xhis tag)
T1 sequence (O00255 with tags, fused parts or gaps T541A): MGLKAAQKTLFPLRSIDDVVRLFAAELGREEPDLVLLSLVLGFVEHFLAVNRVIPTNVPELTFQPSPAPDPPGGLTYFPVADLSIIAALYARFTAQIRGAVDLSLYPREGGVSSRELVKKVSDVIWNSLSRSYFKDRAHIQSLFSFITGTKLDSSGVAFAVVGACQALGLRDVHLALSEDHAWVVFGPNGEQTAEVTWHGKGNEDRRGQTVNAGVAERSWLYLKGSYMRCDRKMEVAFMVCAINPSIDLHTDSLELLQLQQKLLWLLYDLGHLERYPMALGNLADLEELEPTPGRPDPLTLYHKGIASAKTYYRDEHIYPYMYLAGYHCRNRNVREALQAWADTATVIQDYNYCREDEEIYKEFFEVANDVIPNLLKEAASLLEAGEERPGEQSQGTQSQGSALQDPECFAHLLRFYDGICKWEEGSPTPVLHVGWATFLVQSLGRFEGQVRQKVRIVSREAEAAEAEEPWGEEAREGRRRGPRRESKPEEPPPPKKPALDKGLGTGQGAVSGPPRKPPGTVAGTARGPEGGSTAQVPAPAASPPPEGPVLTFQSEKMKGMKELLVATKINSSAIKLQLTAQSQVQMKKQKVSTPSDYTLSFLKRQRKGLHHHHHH
Method in brief: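 Terbium-labeled menin (aa 1-610, His-tagged; 200 pM) preincubated 30 min with compound, then 75 nM FITC-MBM1 peptide added for 15 min at ambient temperature in pH 7.5 Tris buffer, 0.5% DMSO. HTRF ratio 520/490 nm converted to % inhibition. IC50 came from an 11-point four-fold titration from 10 μM, floor 0.1 nM.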

MOLM14 cells = assay: Proliferation assay, spheroid-like growth, MOLM14 (MLL-AF9 rearranged); assay type: cell-based, human; conditions: 8 days, confluence as measure of spheroid size, read-out: spheroid assay_OneTime MOLM14 IC50
Method in brief: as §1

Row | SMILES | IC50 [1] | IC50 (MOLM14 cells) | IC50 (MOLM14 cells; Homo sapiens, MOLM-14, 192 h) | IC50 (KO-52 cells) | IC50 (KO-52 cells; Homo sapiens, 192 h)
1 | CC(=O)N1CCC2C1CCN2[C@H]1C[C@@H]([C@@H](C(C)C)N2CC3(CCN(c4ncnnc4Oc4ccc(F)cc4-c4cncnc4C4CC4)C3)C2)C1 (single isomer, unassigned) [Compound 55] | 0.5 nM | 95 nM |  | 6430 nM | 
2 | CC(C)C([C@H]1C[C@@H](N)C1)N1CC2(CCN(c3ncnnc3Oc3ccc(F)cc3-c3cncnc3C3CC3)C2)C1 (single isomer, unassigned) [Compound 1a] | 0.1 nM | 20 nM |  |  | > 15000 nM
3 | CC(C)[C@@H]([C@H]1C[C@@H](N(C)C)C1)N1CC2(CCN(c3ncnnc3Oc3ccc(F)cc3-c3cccnc3C3CC3)C2)C1 (single isomer, unassigned) [Compound 90] | 0.1 nM |  | 2 nM |  | 540 nM
4 | CC(C)C([C@H]1C[C@@H](N(C)C)C1)N1CC2(CCN(c3ncnnc3Oc3ccc(F)cc3-c3cncnc3C3CC3)C2)C1 (single isomer, unassigned) [Compound 7] | 0.1 nM |  | 4 nM |  | 5040 nM
5 | CC(C)[C@H]([C@H]1C[C@H](N2CC3(COC3)C2)C1)N1CC2(CCN(c3ncnnc3Oc3ccc(F)cc3-c3ncc(C#N)cc3C3CC3)C2)C1 (single isomer, unassigned) [Compound 95] | 0.1 nM |  | 210 nM |  | 11400 nM
6 | CC(=O)NC1CC(C(C(C)C)N2CC3(CCN(c4ncnnc4Oc4ccc(F)cc4-c4cncnc4C4CC4)C3)C2)C1 (single isomer, unassigned) [Compound 2b] | 16.6 nM | 1310 nM |  | > 15000 nM | 
7 | CC(=O)N1CCC2C1CCN2[C@H]1C[C@@H]([C@@H](C(C)C)N2CC3(CCN(c4ncnnc4Oc4ccc(F)cc4-c4cncnc4C4CC4)C3)C2)C1 (single isomer, unassigned) [Compound 54] | 0.3 nM | 28 nM |  |  | 4960 nM
8 | CO[C@H]1CCN([C@H]2C[C@@H]([C@@H](C(C)C)N3CC4(CCN(c5ncnnc5Oc5ccc(F)cc5-c5cnncc5C5CC5)C4)C3)C2)C1 (single isomer, unassigned) [Compound 81] | 2 nM |  | 280 nM |  | > 15000 nM
9 | CC(C)[C@@H]([C@H]1C[C@@H](N2CC[C@@H](C(=O)N(C)C)C2)C1)N1CC2(CCN(c3ncnnc3Oc3ccc(F)cc3-c3cnncc3C3CC3)C2)C1 (single isomer, unassigned) [Compound 110] | 0.1 nM |  | 12 nM |  | 6840 nM
10 | CC(C)[C@@H]([C@H]1C[C@@H](N2CCC(S(C)(=O)=O)CC2)C1)N1CC2(CCN(c3ncnnc3Oc3ccc(F)cc3-c3ncncc3C3CC3)C2)C1 (single isomer, unassigned) [Compound 98] | 0.4 nM |  | 58 nM |  | 4350 nM
11 | CC(C)[C@@H]([C@H]1C[C@H](N2CCC(O)C(F)C2)C1)N1CC2(CCN(c3ncnnc3Oc3ccc(F)cc3-c3cncnc3C3CC3)C2)C1 (single isomer, unassigned) [Compound 86] | 17.2 nM |  | 650 nM |  | > 15000 nM
12 | CC(=O)N1CCN([C@H]2C[C@@H]([C@H](C(C)C)N3CC4(CCN(c5ncnnc5Oc5ccc(F)cc5-c5ncc(C#N)cc5C5CC5)C4)C3)C2)CC1 (single isomer, unassigned) [Compound 96] | 153 nM |  | > 940 nM |  | > 15000 nM
13 | CC(C)[C@H]([C@H]1C[C@@H](N2CCC(F)C(O)C2)C1)N1CC2(CCN(c3ncnnc3Oc3ccc(F)cc3-c3cncnc3C3CC3)C2)C1 (single isomer, unassigned) [Compound 30] | 0.3 nM |  | 29 nM |  | 2580 nM

Continued, in another order:

Row | IC50 [1] | IC50 (MOLM14 cells) | IC50 (MOLM14 cells; Homo sapiens, MOLM-14, 192 h) | SMILES | IC50 (KO-52 cells) | IC50 (KO-52 cells; Homo sapiens, 192 h)
14 | 0.08 nM |  | 2.9 nM | CC(C)C([C@H]1C[C@@H](Nc2ccnc(N)n2)C1)N1CC2(CCN(c3ncnnc3Oc3ccc(F)cc3-c3cncnc3C3CC3)C2)C1 (stereo partly drawn) [Compound 434] |  | 2000 nM
15 | 0.7 nM |  | > 940 nM | CC(C)[C@H]([C@H]1C[C@@H](NC(=O)C2CC2)C1)N1CC2(CCN(c3ncnnc3Oc3ccc(F)cc3-c3nncn3C3CC3)C2)C1 (single isomer, unassigned) [Compound 307] |  | > 15000 nM
16 | 0.1 nM |  | 26 nM | CC(C)[C@H]([C@H]1C[C@@H](N2CC3(COC(=O)N3)C2)C1)N1CC2(CCN(c3ncnnc3Oc3ccc(F)cc3-c3cncnc3C3CC3)C2)C1 (single isomer, unassigned) [Compound 318] |  | 6900 nM
17 | 0.3 nM |  | 170 nM | CC(C)[C@H]([C@H]1C[C@@H](NC(=O)C(C)(C)C)C1)N1CC2(CCN(c3ncnnc3Oc3ccc(F)cc3-c3cncnc3C3CC3)C2)C1 (single isomer, unassigned) [Compound 300] |  | 8190 nM
18 | 0.5 nM |  | 160 nM | CC(C)C([C@H]1C[C@@H](N2CCC(F)(F)CC2)C1)N1CC2(CCN(c3ncnnc3Oc3ccc(F)cc3-c3cncnc3C3CC3)C2)C1 (stereo partly drawn) [Compound 127] |  | 4660 nM
19 | 0.1 nM |  | 38 nM | CC(C)[C@H](C1CCN(CC2COC2)CC1)N1CC2(CCN(c3ncnnc3Oc3ccc(F)cc3-c3cnc(C#N)nc3C3CC3)C2)C1 (single isomer, unassigned) [Compound 333] |  | 820 nM
20 | 0.1 nM |  | < 2 nM | CC(C)[C@H]([C@H]1C[C@@H](N2C[C@H](O)C3(CCC3)C2)C1)N1CC2(CCN(c3ncnnc3Oc3ccc(F)cc3-c3cncnc3C3CC3)C2)C1 (single isomer, unassigned) [Compound 214] |  | 3630 nM
21 | 4.7 nM |  | 920 nM | CC(C)[C@H]([C@H]1C[C@@H](N2CCC3(COC3)C2)C1)N1CC2(CCN(c3ncnnc3Oc3ccc(F)cc3-c3nnccc3C3CC3)C2)C1 (single isomer, unassigned) [Compound 255] |  | > 15000 nM
22 | 0.1 nM |  | 10 nM | CC(C)[C@H]([C@H]1C[C@@H](NC(=O)CCN(C)C)C1)N1CC2(CCN(c3ncnnc3Oc3ccc(F)cc3-c3cncnc3C3CC3)C2)C1 (single isomer, unassigned) [Compound 297] |  | 10600 nM
23 | 91.1 nM |  | > 940 nM | CC(C)[C@H]([C@H]1C[C@]2(COC(=O)N2)C1)N1CC2(CCN(c3ncnnc3Oc3ccc(F)cc3-c3ncccc3C3CC3)C2)C1 (single isomer, unassigned) [Compound 321] |  | > 15000 nM
24 | 0.29 nM |  | 12 nM | CCOC(=O)c1cnc(N[C@H]2C[C@@H](C(C(C)C)N3CC4(CCN(c5ncnnc5Oc5ccc(F)cc5-c5cncnc5C5CC5)C4)C3)C2)o1 (single isomer, unassigned) [Compound 478] |  | 1250 nM
25 | 0.4 nM |  | 94 nM | CC(C)[C@@H]([C@H]1C[C@H](N2C[C@H]3COC[C@H]3C2)C1)N1CC2(CCN(c3ncnnc3Oc3ccc(F)cc3-c3nnccc3C3CC3)C2)C1 (single isomer, unassigned) [Compound 259] |  | 4760 nM
26 | 1.77 nM |  | 530 nM | CC(C)C([C@H]1C[C@@H](Nc2ncc(C(=O)O)o2)C1)N1CC2(CCN(c3ncnnc3Oc3ccc(F)cc3-c3cncnc3C3CC3)C2)C1 (single isomer, unassigned) [Compound 479] |  | > 15000 nM

Reference: patent US20240417405A1, “Substituted Spiro Derivatives” (Janssen Pharmaceutica NV, priority 2021, published 2024)
